Experiments:
[1] = molecular target: Death-associated protein kinase 2 (Homo sapiens) (UniProt Q9UIK4); assay: Inhibition of human DAPK2 using KKLNRTLSFAEPG as substrate at 1 uM in presence of 32P-ATP by Hotspot assay relative to control; values are per cent of control
[2] = molecular target: T1, Serine/threonine-protein kinase D1 (Homo sapiens) (UniProt Q15139); assay: Residual activity of human PKCmu/PRKD1 using KKLNRTLSVA as substrate at 1 uM in presence of 32P-ATP by Hotspot assay relative to control
T1 sequence (whole entry): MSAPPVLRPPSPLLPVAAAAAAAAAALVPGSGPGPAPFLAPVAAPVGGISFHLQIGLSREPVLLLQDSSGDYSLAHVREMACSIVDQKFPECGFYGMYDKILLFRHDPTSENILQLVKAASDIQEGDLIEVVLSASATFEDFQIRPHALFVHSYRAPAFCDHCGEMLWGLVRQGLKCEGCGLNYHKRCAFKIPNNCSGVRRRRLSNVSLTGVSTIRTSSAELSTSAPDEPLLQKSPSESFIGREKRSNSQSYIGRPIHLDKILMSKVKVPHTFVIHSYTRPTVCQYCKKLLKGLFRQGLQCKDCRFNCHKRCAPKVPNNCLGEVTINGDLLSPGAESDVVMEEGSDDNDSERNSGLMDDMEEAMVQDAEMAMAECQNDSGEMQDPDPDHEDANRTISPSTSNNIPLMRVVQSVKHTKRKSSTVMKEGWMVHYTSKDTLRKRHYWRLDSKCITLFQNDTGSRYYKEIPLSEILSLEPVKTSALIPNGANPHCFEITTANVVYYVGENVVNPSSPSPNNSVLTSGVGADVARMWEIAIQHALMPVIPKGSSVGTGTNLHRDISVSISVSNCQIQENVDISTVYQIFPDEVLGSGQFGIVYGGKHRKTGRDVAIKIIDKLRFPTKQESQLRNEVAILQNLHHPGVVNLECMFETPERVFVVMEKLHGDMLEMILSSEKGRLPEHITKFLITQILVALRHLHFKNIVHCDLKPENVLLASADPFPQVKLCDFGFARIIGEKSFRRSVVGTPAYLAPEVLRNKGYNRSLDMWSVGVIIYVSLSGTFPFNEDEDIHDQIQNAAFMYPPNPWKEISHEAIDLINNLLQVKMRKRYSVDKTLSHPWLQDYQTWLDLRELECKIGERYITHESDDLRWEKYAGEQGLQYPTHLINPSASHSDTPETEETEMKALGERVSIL

[3] = molecular target: T2, Calcium/calmodulin-dependent protein kinase type IV (Homo sapiens) (UniProt Q16566); assay: Residual activity of human CAMK4 using KKLNRTLSFAEPG as substrate at 1 uM in presence of 32P-ATP by Hotspot assay relative to control
T2 sequence (whole entry): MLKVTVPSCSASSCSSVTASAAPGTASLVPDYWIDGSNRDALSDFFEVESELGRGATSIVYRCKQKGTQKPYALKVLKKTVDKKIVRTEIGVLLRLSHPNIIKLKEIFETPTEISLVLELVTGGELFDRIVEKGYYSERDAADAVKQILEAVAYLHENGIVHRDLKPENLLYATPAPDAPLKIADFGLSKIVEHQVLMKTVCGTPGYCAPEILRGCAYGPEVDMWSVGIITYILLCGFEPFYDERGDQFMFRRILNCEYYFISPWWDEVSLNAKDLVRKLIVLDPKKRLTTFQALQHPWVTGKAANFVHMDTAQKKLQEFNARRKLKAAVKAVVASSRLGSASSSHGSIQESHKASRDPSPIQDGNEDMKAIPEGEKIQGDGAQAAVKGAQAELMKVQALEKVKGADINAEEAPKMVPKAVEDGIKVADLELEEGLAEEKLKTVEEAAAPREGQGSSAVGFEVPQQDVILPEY

[4] = molecular target: Macrophage-stimulating protein receptor (Homo sapiens) (UniProt Q04912); assay: Inhibition of human RON/MST1R using KKSRGDYMTMQIG as substrate at 1 uM in presence of 32P-ATP by Hotspot assay relative to control
[5] = molecular target: T3, Testis-specific serine/threonine-protein kinase 1 (Homo sapiens) (UniProt Q9BXA7); assay: Residual activity of human STK22D/TSSK1 using KKKVSRSGLYRSPSMPENLNRPR as substrate at 1 uM in presence of 32P-ATP by Hotspot assay relative to control
T3 sequence (whole entry): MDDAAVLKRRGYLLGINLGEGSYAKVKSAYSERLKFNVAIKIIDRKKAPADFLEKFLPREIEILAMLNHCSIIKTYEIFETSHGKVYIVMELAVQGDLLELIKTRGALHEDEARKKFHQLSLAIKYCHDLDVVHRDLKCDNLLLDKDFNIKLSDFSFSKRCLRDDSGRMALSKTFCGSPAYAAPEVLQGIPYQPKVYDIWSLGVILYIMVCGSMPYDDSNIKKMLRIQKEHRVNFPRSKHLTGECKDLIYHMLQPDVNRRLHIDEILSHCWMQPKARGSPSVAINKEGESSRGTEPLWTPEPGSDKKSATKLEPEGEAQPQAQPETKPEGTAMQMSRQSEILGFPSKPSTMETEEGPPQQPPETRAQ

[6] = molecular target: Leukocyte tyrosine kinase receptor (Homo sapiens) (UniProt P29376); assay: Inhibition of human TYK1/LTK using EAIYAAPFAKKK as substrate at 1 uM in presence of 32P-ATP by Hotspot assay relative to control; values are per cent of control
Leukocyte tyrosine kinase receptor (Homo sapiens), sequence (P29376 whole entry): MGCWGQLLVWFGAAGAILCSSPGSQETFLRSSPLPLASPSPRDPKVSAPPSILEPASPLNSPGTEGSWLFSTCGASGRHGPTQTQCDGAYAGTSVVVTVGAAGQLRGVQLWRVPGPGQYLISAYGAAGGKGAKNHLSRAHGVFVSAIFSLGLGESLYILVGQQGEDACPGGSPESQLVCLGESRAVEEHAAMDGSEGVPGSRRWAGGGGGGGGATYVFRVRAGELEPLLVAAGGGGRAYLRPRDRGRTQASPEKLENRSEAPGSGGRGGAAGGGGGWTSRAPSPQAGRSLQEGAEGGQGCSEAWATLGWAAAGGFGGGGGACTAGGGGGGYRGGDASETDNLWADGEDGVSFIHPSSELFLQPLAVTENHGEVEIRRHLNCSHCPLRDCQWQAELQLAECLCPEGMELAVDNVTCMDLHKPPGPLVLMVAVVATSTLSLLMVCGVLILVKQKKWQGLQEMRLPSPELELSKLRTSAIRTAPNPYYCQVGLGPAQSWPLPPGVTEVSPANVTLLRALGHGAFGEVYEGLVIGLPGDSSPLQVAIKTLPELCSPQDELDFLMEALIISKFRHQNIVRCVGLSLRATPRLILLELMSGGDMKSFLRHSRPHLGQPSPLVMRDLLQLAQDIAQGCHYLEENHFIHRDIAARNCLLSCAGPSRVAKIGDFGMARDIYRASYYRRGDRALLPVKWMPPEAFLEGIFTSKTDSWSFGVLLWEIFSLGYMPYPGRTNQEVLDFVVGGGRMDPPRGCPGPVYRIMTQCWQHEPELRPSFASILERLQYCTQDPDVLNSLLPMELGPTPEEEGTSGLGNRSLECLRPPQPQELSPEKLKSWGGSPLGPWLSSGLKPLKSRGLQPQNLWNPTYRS

Macrophage-stimulating protein receptor (Homo sapiens), sequence (Q04912 25-304 limits assumed): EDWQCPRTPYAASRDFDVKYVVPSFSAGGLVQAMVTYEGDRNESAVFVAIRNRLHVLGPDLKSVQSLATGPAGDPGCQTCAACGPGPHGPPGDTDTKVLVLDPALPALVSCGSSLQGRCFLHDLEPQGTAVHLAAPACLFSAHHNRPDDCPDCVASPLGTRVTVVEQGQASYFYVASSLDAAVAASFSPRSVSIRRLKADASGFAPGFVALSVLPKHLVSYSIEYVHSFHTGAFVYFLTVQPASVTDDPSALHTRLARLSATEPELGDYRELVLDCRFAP
Macrophage-stimulating protein receptor (Homo sapiens), sequence (Q04912 310-1400 limits assumed): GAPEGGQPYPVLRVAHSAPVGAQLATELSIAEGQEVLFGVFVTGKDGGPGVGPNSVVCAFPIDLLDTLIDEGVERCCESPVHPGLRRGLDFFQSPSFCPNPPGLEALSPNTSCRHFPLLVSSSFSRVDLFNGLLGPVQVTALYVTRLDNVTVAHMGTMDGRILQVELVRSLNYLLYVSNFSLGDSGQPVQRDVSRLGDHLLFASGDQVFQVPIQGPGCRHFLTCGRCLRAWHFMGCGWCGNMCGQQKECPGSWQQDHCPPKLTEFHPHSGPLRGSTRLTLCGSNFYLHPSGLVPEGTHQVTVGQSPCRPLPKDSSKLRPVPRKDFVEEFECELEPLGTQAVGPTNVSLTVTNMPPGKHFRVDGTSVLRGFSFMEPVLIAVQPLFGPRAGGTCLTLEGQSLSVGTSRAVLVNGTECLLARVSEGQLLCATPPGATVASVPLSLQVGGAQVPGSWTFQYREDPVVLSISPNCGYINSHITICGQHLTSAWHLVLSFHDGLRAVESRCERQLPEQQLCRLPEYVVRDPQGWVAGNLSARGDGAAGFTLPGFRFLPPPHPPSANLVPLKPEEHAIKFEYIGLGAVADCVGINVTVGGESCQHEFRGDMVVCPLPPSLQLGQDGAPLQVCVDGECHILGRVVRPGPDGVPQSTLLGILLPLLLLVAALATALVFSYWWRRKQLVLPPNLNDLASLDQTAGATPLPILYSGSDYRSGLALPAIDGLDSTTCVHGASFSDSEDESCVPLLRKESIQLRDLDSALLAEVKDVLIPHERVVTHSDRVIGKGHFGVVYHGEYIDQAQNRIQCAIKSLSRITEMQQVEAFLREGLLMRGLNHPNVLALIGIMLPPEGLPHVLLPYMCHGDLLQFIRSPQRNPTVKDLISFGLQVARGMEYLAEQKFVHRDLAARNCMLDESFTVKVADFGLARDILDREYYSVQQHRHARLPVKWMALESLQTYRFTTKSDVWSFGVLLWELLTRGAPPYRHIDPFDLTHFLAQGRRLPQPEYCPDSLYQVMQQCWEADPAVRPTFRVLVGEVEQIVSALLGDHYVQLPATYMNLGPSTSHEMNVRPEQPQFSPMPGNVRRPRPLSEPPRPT
Death-associated protein kinase 2 (Homo sapiens), sequence (Q9UIK4 whole entry, looked up): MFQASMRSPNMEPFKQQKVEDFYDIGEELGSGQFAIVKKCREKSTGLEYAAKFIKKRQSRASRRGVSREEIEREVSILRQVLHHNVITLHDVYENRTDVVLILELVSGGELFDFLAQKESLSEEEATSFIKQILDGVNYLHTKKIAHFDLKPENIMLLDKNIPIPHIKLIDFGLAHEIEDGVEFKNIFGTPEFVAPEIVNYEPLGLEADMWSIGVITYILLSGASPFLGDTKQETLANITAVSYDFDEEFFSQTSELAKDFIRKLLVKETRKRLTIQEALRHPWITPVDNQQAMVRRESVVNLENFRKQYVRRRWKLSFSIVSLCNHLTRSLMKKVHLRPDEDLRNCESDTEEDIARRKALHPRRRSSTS

Compound	residual activity [1] [%]	residual activity [2] [%]	residual activity [3] [%]	inhibition [4] [%]	residual activity [5] [%]	residual activity [6] [%]
Cc1cc(-c2cnc(N)c3c(-c4ccc5scnc5c4)csc23)n(C)n1	82.4	51.6	88.6	91.3	101	73.8
CC(C)S(=O)(=O)c1ccc2nccc(Nc3ccc4scnc4c3)c2c1	104	98.9	91	56.6	98.6	98.3
CNC(=O)c1ccc2c(c1)ncn2-c1ccc(CC(=O)OC(C)(C)C)cc1	96.3	99.5	91.8	97.8	89.2	101

Source: ChEMBL document CHEMBL5649166, “RIP3 induces apoptosis independent of pronecrotic kinase activity” (Mol Cell, 2014)
